Data published in US20200170975A1 (Strongbridge Dublin Limited, priority 2018, published 2020).

Target: T1, OCT1 (Homo sapiens, UniProt O15245)
T1 sequence (O15245 1-554): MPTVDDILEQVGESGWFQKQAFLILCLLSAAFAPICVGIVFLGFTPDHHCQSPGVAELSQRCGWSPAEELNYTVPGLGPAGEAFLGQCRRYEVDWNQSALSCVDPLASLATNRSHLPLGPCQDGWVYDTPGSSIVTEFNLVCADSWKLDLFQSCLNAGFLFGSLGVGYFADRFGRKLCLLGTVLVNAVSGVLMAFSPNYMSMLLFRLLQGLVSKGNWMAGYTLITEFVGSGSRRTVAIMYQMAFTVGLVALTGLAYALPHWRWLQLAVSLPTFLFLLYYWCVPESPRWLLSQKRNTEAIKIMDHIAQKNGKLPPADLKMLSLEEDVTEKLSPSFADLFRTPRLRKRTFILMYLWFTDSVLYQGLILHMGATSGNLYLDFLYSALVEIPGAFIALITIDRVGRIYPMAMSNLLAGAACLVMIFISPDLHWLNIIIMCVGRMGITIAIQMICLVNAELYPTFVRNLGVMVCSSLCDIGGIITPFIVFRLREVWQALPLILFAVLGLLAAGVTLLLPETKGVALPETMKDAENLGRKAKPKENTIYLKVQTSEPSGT

NS(=O)(=O)c1cc(Cl)c(Cl)c(S(N)(=O)=O)c1 [Dichlorphenamide, 4,5-dichloro-1,3-benzenedisulfonamide]
IC50: > 1000 µM
